Data taken from ChEMBL document CHEMBL3885881, “DrugMatrix”.

Species: Rattus norvegicus
Test: DrugMatrix - Regimen: Daily Repeat
Assay type: toxicity, organism-based, Sprague-Dawley
Parameters: regimen Daily Repeat, gender Male, age 6-8 weeks
Settings: in vivo, sc, route subcutaneous, […]; for ABSOLUTE BASOPHIL / ABSOLUTE EOSINOPHIL / ABSOLUTE LYMPHOCYTE / ABSOLUTE MONOCYTE / ABSOLUTE SEGMENTED NEUTROPHIL / BASOPHIL / EOSINOPHIL / ERYTHROCYTE COUNT / HEMATOCRIT / HEMOGLOBIN / LEUKOCYTE COUNT / LYMPHOCYTE / MEAN CORPUSCULAR HEMOGLOBIN / MEAN CORPUSCULAR HEMOGLOBIN CONCENTRATION / MEAN CORPUSCULAR VOLUME / MONOCYTE / NEUTROPHIL / NUCLEATED RED BLOOD CELLS / PLATELET COUNT: tissue Blood; for ALANINE AMINOTRANSFERASE / ALBUMIN / ALKALINE PHOSPHATASE / ASPARTATE AMINOTRANSFERASE / BLOOD UREA NITROGEN / CARBON DIOXIDE / CHLORIDE / CHOLESTEROL / CREATINE PHOSPHOKINASE / CREATININE / GLUCOSE / LACTATE DEHYDROGENASE / LIPASE / PHOSPHORUS / POTASSIUM / SODIUM / TOTAL BILIRUBIN / TOTAL PROTEIN / URIC ACID: tissue Plasma
[1] = 0 mg/kg, 72 h, dose level Control, time 3 day
[2] = 0 mg/kg, 120 h, dose level Control, time 5 day
[3] = 18 mg/kg, 72 h, dose level High, time 3 day

## CN(C)c1ccc(C(=C2C=CC(=[N+](C)C)C=C2)c2ccc(N(C)C)cc2)cc1.[Cl-] [GENTIAN VIOLET]
[1]
  ABSOLUTE BASOPHIL: 0 CELLS/uL
  ABSOLUTE EOSINOPHIL: 92.33 CELLS/uL
  ABSOLUTE LYMPHOCYTE: 12247.5 CELLS/uL
  ABSOLUTE MONOCYTE: 389.67 CELLS/uL
  ABSOLUTE SEGMENTED NEUTROPHIL: 1320.5 CELLS/uL
  BASOPHIL: 0%
  EOSINOPHIL: 0.67%
  ERYTHROCYTE COUNT: 5.45 x10E6/uL
  HEMATOCRIT: 34.85%
  HEMOGLOBIN: 12.97 G/DL
  LEUKOCYTE COUNT: 14.05 x10E3/uL
  LYMPHOCYTE: 87.33%
  MEAN CORPUSCULAR HEMOGLOBIN: 23.78 pg
  MEAN CORPUSCULAR HEMOGLOBIN CONCENTRATION: 37.22 G/DL
  MEAN CORPUSCULAR VOLUME: 63.93 fL
  MONOCYTE: 2.67%
  NEUTROPHIL: 9.33%
  NUCLEATED RED BLOOD CELLS: 0 /100WBC
  PLATELET COUNT: 1174 x10E3/uL
  ALANINE AMINOTRANSFERASE: 48.83 u/L
  ALBUMIN: 4.23 G/DL
  ALKALINE PHOSPHATASE: 351.5 u/L
  ASPARTATE AMINOTRANSFERASE: 90 u/L
  BLOOD UREA NITROGEN: 15.33 mg/dL
  CARBON DIOXIDE: 23 mmol/L
  CHLORIDE: 103.5 MEQ/L
  CHOLESTEROL: 70.5 mg/dL
  CREATINE PHOSPHOKINASE: 651.83 u/L
  CREATININE: 0.22 mg/dL
  GLUCOSE: 180.67 mg/dL
  LACTATE DEHYDROGENASE: 165 u/L
  LIPASE: 9.33 u/L
  PHOSPHORUS: 12.03 mg/dL
  POTASSIUM: 6.17 MEQ/L
  SODIUM: 142.62 MEQ/L
  TOTAL BILIRUBIN: 0.2 mg/dL
  TOTAL PROTEIN: 5.73 G/DL
  URIC ACID: 1.77 mg/dL
[2]
  ABSOLUTE BASOPHIL: 0 CELLS/uL
  ABSOLUTE EOSINOPHIL: 0 CELLS/uL
  ABSOLUTE LYMPHOCYTE: 12736.67 CELLS/uL
  ABSOLUTE MONOCYTE: 253.5 CELLS/uL
  ABSOLUTE SEGMENTED NEUTROPHIL: 1193.17 CELLS/uL
  BASOPHIL: 0%
  EOSINOPHIL: 0%
  ERYTHROCYTE COUNT: 5.72 x10E6/uL
  HEMATOCRIT: 36.05%
  HEMOGLOBIN: 13.62 G/DL
  LEUKOCYTE COUNT: 14.18 x10E3/uL
  LYMPHOCYTE: 89.33%
  MEAN CORPUSCULAR HEMOGLOBIN: 23.83 pg
  MEAN CORPUSCULAR HEMOGLOBIN CONCENTRATION: 37.8 G/DL
  MEAN CORPUSCULAR VOLUME: 63.05 fL
  MONOCYTE: 1.83%
  NEUTROPHIL: 8.83%
  NUCLEATED RED BLOOD CELLS: 0 /100WBC
  PLATELET COUNT: 1322.17 x10E3/uL
  ALANINE AMINOTRANSFERASE: 48.83 u/L
  ALBUMIN: 4.27 G/DL
  ALKALINE PHOSPHATASE: 295.17 u/L
  ASPARTATE AMINOTRANSFERASE: 75.83 u/L
  BLOOD UREA NITROGEN: 15.5 mg/dL
  CARBON DIOXIDE: 30.5 mmol/L
  CHLORIDE: 102.33 MEQ/L
  CHOLESTEROL: 76.17 mg/dL
  CREATINE PHOSPHOKINASE: 205.5 u/L
  CREATININE: 0.2 mg/dL
  GLUCOSE: 149.67 mg/dL
  LACTATE DEHYDROGENASE: 124.5 u/L
  LIPASE: 10 u/L
  PHOSPHORUS: 10.93 mg/dL
  POTASSIUM: 6.59 MEQ/L
  SODIUM: 143.1 MEQ/L
  TOTAL BILIRUBIN: 0.2 mg/dL
  TOTAL PROTEIN: 6.05 G/DL
  URIC ACID: 1.45 mg/dL
[3]
  ABSOLUTE BASOPHIL: 0 CELLS/uL
  ABSOLUTE EOSINOPHIL: 0 CELLS/uL
  ABSOLUTE LYMPHOCYTE: 12052.33 CELLS/uL
  ABSOLUTE MONOCYTE: 236.33 CELLS/uL
  ABSOLUTE SEGMENTED NEUTROPHIL: 1544.67 CELLS/uL
  BASOPHIL: 0%
  EOSINOPHIL: 0%
  ERYTHROCYTE COUNT: 5.45 x10E6/uL
  HEMATOCRIT: 33.5%
  HEMOGLOBIN: 12.27 G/DL
  LEUKOCYTE COUNT: 13.83 x10E3/uL
  LYMPHOCYTE: 87%
  MEAN CORPUSCULAR HEMOGLOBIN: 22.5 pg
  MEAN CORPUSCULAR HEMOGLOBIN CONCENTRATION: 36.67 G/DL
  MEAN CORPUSCULAR VOLUME: 61.5 fL
  MONOCYTE: 1.67%
  NEUTROPHIL: 11.33%
  NUCLEATED RED BLOOD CELLS: 0 /100WBC
  PLATELET COUNT: 1084 x10E3/uL
  ALANINE AMINOTRANSFERASE: 34.67 u/L
  ALBUMIN: 2.67 G/DL
  ALKALINE PHOSPHATASE: 220 u/L
  ASPARTATE AMINOTRANSFERASE: 68.67 u/L
  BLOOD UREA NITROGEN: 12 mg/dL
  CARBON DIOXIDE: 19 mmol/L
  CHLORIDE: 103.5 MEQ/L
  CHOLESTEROL: 66.33 mg/dL
  CREATINE PHOSPHOKINASE: 157.33 u/L
  CREATININE: 0.17 mg/dL
  GLUCOSE: 122.33 mg/dL
  LACTATE DEHYDROGENASE: 148 u/L
  LIPASE: 7.33 u/L
  PHOSPHORUS: 8.5 mg/dL
  POTASSIUM: 6.06 MEQ/L
  SODIUM: 145.95 MEQ/L
  TOTAL BILIRUBIN: 0.13 mg/dL
  TOTAL PROTEIN: 4.7 G/DL
  URIC ACID: 1.1 mg/dL
